What is called IC50 is the concentration at which inhibition is half-maximal.

The experiment deals with T1, human DPP-IV (Homo sapiens, UniProt P27487).
T1 construct: made in house; host or cells: Pichia pastoris (secreted, purified from culture medium)
T1 sequence (P27487 31-766): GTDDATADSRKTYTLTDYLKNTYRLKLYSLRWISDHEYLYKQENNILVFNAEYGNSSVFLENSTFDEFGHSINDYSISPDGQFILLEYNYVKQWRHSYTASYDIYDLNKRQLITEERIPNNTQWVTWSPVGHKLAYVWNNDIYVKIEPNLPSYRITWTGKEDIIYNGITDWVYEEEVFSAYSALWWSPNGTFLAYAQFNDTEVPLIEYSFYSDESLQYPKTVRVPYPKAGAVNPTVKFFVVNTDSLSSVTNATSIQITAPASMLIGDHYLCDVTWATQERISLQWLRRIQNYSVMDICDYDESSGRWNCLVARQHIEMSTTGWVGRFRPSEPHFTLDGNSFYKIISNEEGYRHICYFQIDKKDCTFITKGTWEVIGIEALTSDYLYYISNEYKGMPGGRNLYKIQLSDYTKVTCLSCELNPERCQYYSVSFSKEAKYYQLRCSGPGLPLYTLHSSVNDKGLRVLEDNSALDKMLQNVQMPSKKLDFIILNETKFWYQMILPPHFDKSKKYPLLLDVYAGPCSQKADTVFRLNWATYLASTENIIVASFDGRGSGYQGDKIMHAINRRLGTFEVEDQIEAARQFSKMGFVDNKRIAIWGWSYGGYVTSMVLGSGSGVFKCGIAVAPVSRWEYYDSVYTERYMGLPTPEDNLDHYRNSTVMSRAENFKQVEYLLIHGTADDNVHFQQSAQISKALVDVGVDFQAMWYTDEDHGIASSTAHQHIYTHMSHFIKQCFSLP
The experiment in a line: DPP-IV activity assay (fluorogenic or colorimetric substrate). It is filed as biochemical. The conditions noted are these: natural human DPP-IV from human plasma pool or recombinant human DPP-IV; 37° C., pH 7.8. The procedure: Activity of DPP-IV inhibitors are tested with natural human DPP-IV derived from a human plasma pool or with recombinant human DPP-IV. Human citrate plasma from different donors is pooled, filtered through a 0.2 micron membrane under sterile conditions and aliquots of 1 ml are shock frozen and stored at −120° C. until used. In the colorimetric DPP-IV assay 5 to 10 μl human plasma and in the fluorometric assay 1.0 μl of human plasma in a total assay volume of 100 μl is used as an enzyme source. The cDNA of the human DPP-IV sequence of amino acid 31- to 766, restricted for the N-terminus and the transmembrane domain, is cloned into Pichia pastoris. Human DPP-IV is expressed and purified from the culture medium using conventional column chromatography including size exclusion and anion and cation chromatography. The purity of the final enzyme preparation of Coomassie blue SDS-PAGE is >95%. In the colorimetric DPP-IV assay 20 ng rec.-h DPP-IV and in the fluorometric assay 2 ng rec-h DPP-IV in a total assay volume of 100 μl is used as an enzyme source.
In the fluorogenic assay Ala-Pro-7-amido-4-trifluoromethylcoumarin (Calbiochem No 125510) is used as a substrate. A 20 mM stock solution in 10% DMF/H2O is stored at −20° C. until use. In IC50 determinations a final substrate concentration of 50 μM is used. In assays to determine kinetic parameters as Km, Vmax, Ki, the substrate concentration is varied between 10 μM and 500 μM.
In the colorimetric assay H-Ala-Pro-pNA.HCl (Bachem L-11115) is used as a substrate. A 10 mM stock solution in 10% MeOH/H2O is stored at −20° C. until use. In IC50 determinations a final substrate concentration of 200 μM is used. In assays to determine kinetic parameters as Km, Vmax, Ki, the substrate concentration is varied between 100 μM and 2000 μM.
Fluorescence is detected in a Perkin Elmer Luminescence Spectrometer LS 50B at an excitation wavelength of 400 nm and an emission wavelength of 505 nm continuously every 15 seconds for 10 to 30 minutes. Initial rate constants are calculated by best fit linear regression.
The absorption of pNA liberated from the colorimetric substrate is detected in a Packard SpectraCount at 405 nm continuously every 2 minutes for 30 to 120 minutes. Initial rate constants are calculated by best fit linear regression.
DPP-IV activity assays are performed in 96 well plates at 37° C. in a total assay volume of 100 μl. The assay buffer consists of 50 mM Tris/HCl, pH 7.8 containing 0.1 mg/ml BSA and 100 mM NaCl. […]
IC50 determinations of test compounds are calculated by non-linear best fit regression of the DPP-IV inhibition of at least 5 different compound concentrations. Kinetic parameters of the enzyme reaction are calculated at least 5 different substrate concentrations and at least 5 different test compound concentrations.
Regarding `N[C@@H]1CCCC[C@@H]1c1cc(Cl)ccc1Cl` (relative stereo) [Example 7, (cis)-2-(2,5-Dichloro-phenyl)-cyclohexylamine], the IC50 was 130 nM.
In the case of `Cc1ccc(C)c([C@@H]2CCCC[C@H]2N)c1` (relative stereo) [Example 18, (trans)-2-(2,5-Dimethyl-phenyl)-cyclohexylamine] it was 160 nM.
Consider `N[C@@H]1CCCCC[C@H]1c1cc(Cl)ccc1Cl` (relative stereo) [Example 24, (trans)-2-(2,5-Dichloro-phenyl)-cycloheptylamine], for which the IC50 came to 720 nM.
In the case of `CC1=CC(=O)N([C@@H]2CCCC[C@H]2N)C1` (relative stereo) [Example 30, trans-1-(2-Amino-cyclohexyl)-4-methyl-1,5-dihydro-pyrrol-2-one] it was 730 nM.

These data come from patent publication US7411093B2, “Aminocycloalkanes as DPP-IV inhibitors” (Hoffman-La Roche Inc., priority 2004, dated 2008).
